Measured values taken from patent US20080249123A1, “WORTMANNIN-RAPAMYCIN CONJUGATE AND USES THEREOF” (Wyeth, priority 2007, published 2008).

Key:
HCT116 = assay: In vitro cell culture growth assay (MTS), HCT116; format: cell-based, Human; conditions: colon line, 3 days after drug treatment
Experimental: (§1) Human tumor cell lines (Table 3) include prostate lines LNCap and PC3MM2, breast lines MDA468, MCF7, renal line HTB44 (A498), colon line HCT116, and ovarian line OVCAR3. Cells were plated in 96-well culture plates.
(§2) One day following plating, the following conjugates (inhibitors) were added to cells: • Compound A 42,17′-linked wortmannin-adipate-rapamycin conjugate, diethylamine adduct • Compound B 42,17′-linked wortmannin-adipate-rapamycin conjugate. • Compound C 42,17′-linked wortmannin-succinate-rapamycin conjugate, N,N,N′-trimethyl 1,3-propanediamine adduct • Compound D 42,17′-linked wortmannin-adipate-rapamycin conjugate, diallylamine adduct • Compound E 42,17′-linked wortmannin-adipate-rapamycin conjugate, N,N,N′-trimethyl 1,3-propanediamine adduct • Compound F 42,17′-linked wortmannin-suberate-rapamycin conjugate, N,N,N′-trimethyl 1,3-propanediamine adduct.
(§3) Three days after drug treatment, viable cell densities were determined by metabolic conversion (by viable cells) of the MTS dye (3-(4,5-dimethylthiazol-2-yl)-5-(3 carboxymethoxyphenyl)-2-(4-sulfophenyl)-2H-tetrazolium, inner salt), a well established cell proliferation assay. The assays were performed using an assay kit purchased from Promega Corp. (Madison, Wis.) following the protocol supplied with the kit. The MTS assay results were read in a 96-well plate reader by measuring absorbance at 490 nm. The effect of each treatment was calculated as percent of control growth relative to the vehicle-treated cells grown in the same culture plate. The drug concentration that conferred 50% inhibition of growth was determined as IC50 (μg/mL). See, Table 3.

OVCAR3 = assay: In vitro cell culture growth assay (MTS), OVCAR3; format: cell-based, Human; conditions: ovarian line, 3 days after drug treatment
Experimental: as §1, §2, §3

PC3MM2 = assay: In vitro cell culture growth assay (MTS), PC3MM2; format: cell-based, Human; conditions: prostate line, 3 days after drug treatment
Experimental: as §1, §2, §3

LNCap = assay: In vitro cell culture growth assay (MTS), LNCap; format: cell-based, Human; conditions: prostate line, 3 days after drug treatment
Experimental: as §1, §2, §3

HTB44 (A498) = assay: In vitro cell culture growth assay (MTS), HTB44 (A498); format: cell-based, Human; conditions: renal line, 3 days after drug treatment
Experimental: as §1, §2, §3

MCF7 = assay: In vitro cell culture growth assay (MTS), MCF7; format: cell-based, Human; conditions: breast line, 3 days after drug treatment
Experimental: as §1, §2, §3

MDA468 = assay: In vitro cell culture growth assay (MTS), MDA468; format: cell-based, Human; conditions: breast line, 3 days after drug treatment
Experimental: as §1, §2, §3

U87MG Glioma Xenografts = assay: Xenograft tumor efficacy study, U87MG glioma in nude mice; format: in vivo; conditions: for Tumor Volume mean, Day 14 / S/T (D14), Survival over total in group / t/c (Treated over control) tumor volume, Day 14: Day 14
Experimental: Female nude mice at 10 weeks of age were inoculated subcutaneously on the flank with 200 μL U87MG (human gliobastoma) tumor cell suspension. U87MG cells were suspended in full growth media and were implanted at 10 million cells per mouse. Mice were staged when tumors reached approximately 200 mm^3 in sizes. Tumor bearing mice at staging (day 0) were randomized into treatment groups (n=10). […]
The growth of tumors was monitored twice a week for the duration of the experiment. Tumor size was measured using sliding vernier calipers, and the tumor mass was calculated using the formula (length×Width^2)/2.
The experimental methods for drug preparation, dosing route, regimen, etc (listed in the Table 4) were similar to the experiments presented in the Figures. The data in Table 4 and the Figures were derived from multiple and completely different experiments. Within Table 4, the data contained separate experiments.

PI3K = conditions: cited from earlier work
C3H mammary model = conditions: cited from earlier work

Compound | IC50 inhibition of tumor cell growth, HCT116 (HCT116) [mg/L] | IC50 inhibition of tumor cell growth, OVCAR3 (OVCAR3) [mg/L] | IC50 inhibition of tumor cell growth, PC2MM2 (PC3MM2) [mg/L] | IC50 inhibition of tumor cell growth, LNCap (LNCap) [mg/L] | IC50 inhibition of tumor cell growth, HTB44 (HTB44 (A498)) [mg/L] | IC50 inhibition of tumor cell growth, MCF7 (MCF7) [mg/L] | IC50 inhibition of tumor cell growth, MDA468 (MDA468) [mg/L] | Tumor Volume mean, Day 0 (U87MG Glioma Xenografts; 3 mg/kg IV on day 0 and day 7) [mm^3] | Tumor Volume mean, Day 3 (U87MG Glioma Xenografts; 3 mg/kg IV on day 0 and day 7) [mm^3] | Tumor Volume mean, Day 7 (U87MG Glioma Xenografts; 3 mg/kg IV on day 0 and day 7) [mm^3] | Tumor Volume mean, Day 10 (U87MG Glioma Xenografts; 3 mg/kg IV on day 0 and day 7) [mm^3] | Tumor Volume mean, Day 14 (U87MG Glioma Xenografts; 3 mg/kg IV on day 0 and day 7) [mm^3] | t/c (Treated over control) tumor volume, Day 0 (U87MG Glioma Xenografts; 3 mg/kg) | t/c (Treated over control) tumor volume, Day 3 (U87MG Glioma Xenografts; 3 mg/kg) | t/c (Treated over control) tumor volume, Day 7 (U87MG Glioma Xenografts; 3 mg/kg) | t/c (Treated over control) tumor volume, Day 10 (U87MG Glioma Xenografts; 3 mg/kg) | S/T (D14), Survival over total in group (U87MG Glioma Xenografts; 3 mg/kg) | t/c (Treated over control) tumor volume, Day 14 (U87MG Glioma Xenografts; 3 mg/kg) | Tumor Volume mean, Day 0 (U87MG Glioma Xenografts; 15 mg/kg IV on day 0 and day 7) [mm^3] | Tumor Volume mean, Day 3 (U87MG Glioma Xenografts; 15 mg/kg IV on day 0 and day 7) [mm^3] | further results
42,17′-linked wortmannin-adipate-rapamycin conjugate, diethylamine adduct [Compound A] | >30 | 8.50 | 2.55 | 0.04 | 0.57 | 0.29 | 0.38 | – | – | – | – | – | – | – | – | – | – | – | – | – | –
42,17′-linked wortmannin-adipate-rapamycin conjugate, diallylamine adduct [Compound D] | 5.00 | 1.75 | 0.43 | 0.21 | 4.10 | 0.66 | 1.15 | 185.1 | 244.5 | 435.4 | 636.4 | 1050.1 | 1.00 | 0.89 | 0.87 | 0.60 | 10/10 | 0.47 | 181.5 | 186.0 | Tumor Volume mean, Day 10 (U87MG Glioma Xenografts; 15 mg/kg IV on day 0 and day 7): 242.5 mm^3; Tumor Volume mean, Day 14 (U87MG Glioma Xenografts; 15 mg/kg IV on day 0 and day 7): 254.6 mm^3; t/c (Treated over control) tumor volume, Day 0 (U87MG Glioma Xenografts; 15 mg/kg): 0.98; t/c (Treated over control) tumor volume, Day 3 (U87MG Glioma Xenografts; 15 mg/kg): 0.68; t/c (Treated over control) tumor volume, Day 10 (U87MG Glioma Xenografts; 15 mg/kg): 0.23; S/T (D14), Survival over total in group (U87MG Glioma Xenografts; 15 mg/kg): 10/10; t/c (Treated over control) tumor volume, Day 14 (U87MG Glioma Xenografts; 15 mg/kg): 0.11
42,17′-linked wortmannin-adipate-rapamycin conjugate [Compound B] | 16.50 | 4.70 | 1.10 | 0.80 | 3.50 | 1.00 | 2.05 | – | – | – | – | – | – | – | – | – | – | – | – | – | –
42,17′-linked wortmannin-succinate-rapamycin conjugate, N,N,N′-trimethyl 1,3-propanediamine adduct [Compound C] | 4.20 | 1.13 | 0.50 | 0.20 | 2.00 | 0.38 | 1.20 | 193.0 | 209.6 | 437.2 | 691.8 | 1091.7 | 1.04 | 0.76 | 0.88 | 0.66 | 10/10 | 0.49 | 183.6 | 193.5 | Tumor Volume mean, Day 7 (U87MG Glioma Xenografts; 15 mg/kg IV on day 0 and day 7): 246.7 mm^3; Tumor Volume mean, Day 10 (U87MG Glioma Xenografts; 15 mg/kg IV on day 0 and day 7): 294.2 mm^3; t/c (Treated over control) tumor volume, Day 0 (U87MG Glioma Xenografts; 15 mg/kg): 0.99; t/c (Treated over control) tumor volume, Day 3 (U87MG Glioma Xenografts; 15 mg/kg): 0.70; t/c (Treated over control) tumor volume, Day 7 (U87MG Glioma Xenografts; 15 mg/kg): 0.49; t/c (Treated over control) tumor volume, Day 10 (U87MG Glioma Xenografts; 15 mg/kg): 0.28; S/T (D14), Survival over total in group (U87MG Glioma Xenografts; 15 mg/kg): 10/10; t/c (Treated over control) tumor volume, Day 14 (U87MG Glioma Xenografts; 15 mg/kg): 0.11; antitumor activity (FIG. 2) (U87MG Glioma Xenografts; i.v. 1× weekly for 2 rounds at 1.5 mg/kg): improved inhibition of tumor cell growth; antitumor activity (FIG. 2) (U87MG Glioma Xenografts; i.v. 1× weekly for 2 rounds at 4.5 mg/kg): some improvement; antitumor activity (FIG. 2) (U87MG Glioma Xenografts; i.v. 1× weekly for 8 rounds at 15 mg/kg): Significant improvement
42,17′-linked wortmannin-adipate-rapamycin conjugate, N,N,N′-trimethyl 1,3-propanediamine adduct [Compound E] | 7.50 | 3.15 | 1.95 | 0.25 | 5.00 | 1.00 | 1.35 | 182.7 | 214.7 | 340.2 | 471.6 | 595.9 | 0.99 | 0.78 | 0.68 | 0.45 | 10/10 | 0.27 | 187.5 | 168.0 | Tumor Volume mean, Day 7 (U87MG Glioma Xenografts; 15 mg/kg IV on day 0 and day 7): 181.6 mm^3; Tumor Volume mean, Day 10 (U87MG Glioma Xenografts; 15 mg/kg IV on day 0 and day 7): 165.8 mm^3; Tumor Volume mean, Day 14 (U87MG Glioma Xenografts; 15 mg/kg IV on day 0 and day 7): 162.8 mm^3; t/c (Treated over control) tumor volume, Day 0 (U87MG Glioma Xenografts; 15 mg/kg): 1.01; t/c (Treated over control) tumor volume, Day 3 (U87MG Glioma Xenografts; 15 mg/kg): 0.61; t/c (Treated over control) tumor volume, Day 7 (U87MG Glioma Xenografts; 15 mg/kg): 0.36; t/c (Treated over control) tumor volume, Day 10 (U87MG Glioma Xenografts; 15 mg/kg): 0.16; S/T (D14), Survival over total in group (U87MG Glioma Xenografts; 15 mg/kg): 10/10; t/c (Treated over control) tumor volume, Day 14 (U87MG Glioma Xenografts; 15 mg/kg): 0.07; efficacy in multi-cycle treatment (FIG. 2) (U87MG Glioma Xenografts; multi-cycle treatment): sustained efficacy
COCC1OC(=O)c2coc3c2C1(C)C1=C(C3=O)C2CCC(O)C2(C)CC1OC(C)=O (stereo not drawn) [17β-Hydroxywortmannin] | – | – | – | – | – | – | – | – | – | – | – | – | – | – | – | – | – | – | – | – | increase in activity relative to wortmannin (PI3K; PI3K): 10 fold; IC50 (PI3K): 0.5 nM; anti-tumor activity in the C3H mammary model (C3H mammary model; dose of 0.5 mg/kg): no inhibition; toxicity in the C3H mammary model (C3H mammary model; dose of 1.0 mg/kg): toxicity
